Results: patent publication US9504722B2, “Anti-obese compositions containing holoptelea integrifolia extracts” (Laila Nutraceuticals, priority 2007, dated 2016)

Tests used:
[1] = test system: diet induced obese Sprague-Dawley rats; test: Anti-obese activity in diet induced obese rats (therapeutic); format: in vivo, rat; conditions: 7 mg/kg body weight, 5 weeks after 8 weeks high fat diet, vs control group
Protocol: Anti-Obese Activity of Holoptelea integrifolia in Diet Induced Obese Rats.
Selected healthy Sprague-Dawley rats were randomly assigned to control or various treatment groups (n=6). All the animals allocated for the study were made obese through dietary intervention by feeding high fat diet ad libitum for 8 weeks. After 8 weeks, the treatment group of animals was given oral administration of 250 mg/kg or 500 mg/kg of Holoptelea integrifolia alcohol extract in 10 mL of 0.5% CMC, using gastric tube for 5 week study duration. Sibutramine (7 mg/kg body weight) is used as a positive control. The control group of animals were given 10 ml/kg of 0.5% CMC. Food and water consumption were recorded daily, body weights were recorded weekly and fasting blood samples were collected before initiation after 5th week of the study. The weight gain for different groups compared at weekly intervals (FIG. II).

[2] = test system: Sprague-Dawley rats on high fat diet; test: Protective effect against diet induced obesity in rats; format: in vivo, rat; conditions: 7 mg/kg body weight, 8 weeks, vs control group
Protocol: Protective Effect of Holoptelea integrifolia Against Diet Induced Obesity in Rats.
Selected healthy Sprague-Dawley rats were randomly assigned to control or various treatment groups (n=6). All the animals allocated for protective phase of the study were on dietary intervention by feeding high fat diet ad libitum and the animals allocated to treatment groups were simultaneously given oral administration of 100 mg or 250 mg/kg Holoptelea integrifolia methanol extract in 10 mL of 0.5% CMC, using gastric tube for the entire 8 week study duration. The test animals of the control group were simultaneously given 10 ml/kg of 0.5% CMC. Sibutramine (7 mg/kg body weight) was used as a positive control. Food and water consumption were recorded daily, body weights were recorded weekly and fasting blood samples were collected before initiation, after 4th week and 8th week (termination) of the study. The weight gain is plotted against the study duration in weeks (FIG. I). […] Upon administration of Holoptelea integrifolia alcohol extract for a period of 60 days, the level of triglyceride in the obese rats was reduced by 50% compared to the control. The levels of serum cholesterol and LDL were reduced by 40% and 45% respectively, whereas the level of HDL was increased by 25%.

SMILES: CC(C)CC(N(C)C)C1(c2ccc(Cl)cc2)CCC1 (centres unmarked) [Sibutramine]
- reduction in weight gain [1]: 123.1%
- reduction in weight gain [2]: 30.5%
